# From patent US8119689B2, “Adjuvants on the basis of bisacyloxypropylcystene conjugates and derivatives and their uses in pharmaceutical compositions” (Helmholtz-Zentrum Fuer Infektionsforschung GmbH, priority 2005, dated 2012)
# Entries after “also recorded” stand apart in the source; their conditions may differ.
# Legend:
# spleen cells = assay: ELISPOT of cytokine producing spleen cells from vaccinated mice; type: in vivo
# Procedure: FIG. 9: FIG. 9 provides the cytokine profile (IFNγ, IL-4 and IL-2) secreted by in vitro re-stimulated spleen cells from mice vaccinated with either BPPcysGlyc4armPEG or BPPcysMPEG (A), or BPPcysAda (B) and the model antigen β-gal (30 μg) alone. Results are expressed as spot forming units with subtracted background in the immunized groups with respect to the non-immunized control mice. Differences were statistically significant at p<0.05 (*) with respect to mice receiving antigen alone.
# Experimental protocol: Spleens were removed and pooled for analysis of cellular immune responses. Cells were grown in RPMI 1640 supplemented with 10% fetal calf serum, 100 U/ml of penicillin, 50 μg/ml of streptomycin, 5×10^−5 M 2-mercaptoethanol and 1 mM L-glutamine (GIBCO BRL, Karlsruhe, Germany) and maintained at 37° C. in a humidified 5% CO2 atmosphere. […] Coat ELISPOT plate with 100 μl/well of purified capture antibody at 10 μg/ml in coating buffer, incubate at 4° C. overnight. After 6× washing steps, the plates were blocked with 200 μl/well of complete RPMI-1640 at room temperature for 1 hour. The activated cells were seeded at 100 μl per well and incubate at 37° C., in a 5% CO2 humidified incubator for 24 hours or 48 hours. After 5× washing steps with washing buffer and 1× step with distilled water, 100 μl/well of the biotinylated detection antibody with a concentration of 1 μg/ml in Assay Diluent was added and incubated at room temperature for 2 hrs. After further washing steps 100 μl/well of the AV-HRP at 1/1000 dilution in Assay Diluent was added and incubated at room temperature for 30 minutes. After further washing steps 100 μl/well of AEC Substrate Solution was added and developed at room temperature for 20-60 minutes until visible spots appeared. After washing steps with (3×) with 200 μl/well distilled water, the plates were air-dried and analyzed by counting the spots by an ELISPOT reader. Each concentration was tested in triplicates.
# [1] = system: β-gal-specific antibodies; assay: Serum β-gal-specific IgG titers after i.n. or s.c. vaccination (ELISA); type: in vivo, BALB/c mice
# Procedure: FIG. 5: FIG. 5 illustrates the humoral responses following vaccination using BPPcysGlyc4armPEG and BPPcysAda, respectively, as adjuvant. Mice were immunised by intranasal (i.n.) and subcutaneous, transcutaneous (topical vaccination) (s.c.) routes with either β-galactosidase (30 μg) alone or β-galactosidase mixed with BPPcysGlyc4armPEG or BPPcysAda on days 0, 14 and 28. At day 38 post primary immunisation, serum samples were collected and the titre of 1-galactosidase-specific antibodies was determined by ELISA. As a control, a group in which animals were immunized with β-galactosidase alone was used (A). In (B) and (C) the kinetic of antigen specific serum IgG is shown for intranasal vaccination (B) and parenteral vaccination (C), respectively. […] Differences were statistically significant at p<0.05 (*) with respect to mice receiving antigen alone. One representative out of four independent experiments is shown. SEM is indicated by vertical lines.
# Experimental protocol: six-eight weeks-old female BALB/c (H-2d) mice were purchased from Harlan Winkelmann GmbH (Borchen, Germany) and treated in accordance with local and European Community guidelines. […] Endpoint titers were expressed as the reciprocal log2 of the last dilution, which gave an optical density at 405 nm of 0.1 units above the values of the negative controls after 15 to 30 min of incubation.
compound,measurement,setting,value
"CCCCCCCCCCCCCCCC(=O)OCC(CSC[C@H](N)C(=O)N[C@H]1[C@@H](O)[C@H](n2cnc3c(N)ncnc32)O[C@@H]1CO)OC(=O)CCCCCCCCCCCCCCC (single isomer, unassigned) [BPPcysAda, S-[2,3-bis(palmitoyloxy)-(2S or 2R)-propyl]-L-cysteinylcarboxy-3′Amino-3′-deoxyadenosine]",splenic IL-2 producing cells,spleen cells; i.n. and s.c. route,enhanced expression
same,splenic IL-4 producing cells,spleen cells; i.n. and s.c. route,enhanced expression
same,number of splenic IFNγ producing cells,spleen cells; restimulation with MHC class I-restricted β-Galactosidase peptide,increment
same,"β-gal-specific serum IgG titers, i.n. administration","[1]; i.n. with β-gal, vs antigen alone",enhanced expression; also recorded: very high titers; also recorded: significantly higher levels
same,"β-gal-specific serum IgG titers, s.c. route","[1]; s.c. co-injection with β-gal, vs β-gal alone",enhanced expression; also recorded: increased
